Measured values taken from US20250387375A1, “SOFALCONE DERIVATIVES AND MEDICAL USE THEREOF” (KAOHSIUNG MEDICAL UNIVERSITY, priority 2024, published 2025).

Tested on: human platelet suspension (platelet aggregation caused by TxA2 agonist U46619)
Assay: Platelet aggregation reaction test, U46619-induced
Format: cell-based
Conditions: not given
Experimental: (§1) Blood samples were collected from healthy donors, and acid-citrate-dextrose (ACD) solution was used as an anticoagulant. The blood samples were centrifuged to obtain platelets, and residual plasma was removed by washing to prepare platelet suspension.
(§2) In the experimental method, a platelet aggregometer (Chrono-Log Co., Havertown, PA, USA) was used for tests. The compound to be tested was added to the platelet suspension and reacted for 3 minutes at 37° C. with stirring (1200 rpm). Then, platelet stimulator U46619 or collagen was added to initiate platelet aggregation, and the test time was 5 minutes. The principle of the platelet aggregation test was: when platelets were stimulated to induce aggregation reaction, the light transmission of the platelet suspension would increase; by calculating changes in light transmission of the platelet suspension before and after being stimulated, the percentage of platelet aggregation could be obtained.

Compound | IC50
CC(C)=CCOc1ccc(/C=C/C(=O)c2ccccc2OCC(=O)O)cc1 [Compound 27] | 5.07 µM
CC(C)=CCCC(C)=CCOc1ccc(C=CC(=O)c2ccc(OCC=C(C)CCC=C(C)C)cc2OCCCC(=O)O)cc1 [Compound 4] | 0.05 µM
CCOC(=O)COc1cc(O)ccc1C(=O)C=Cc1ccc(F)cc1 [Compound 43] | 55.6 µM
O=C(O)COc1cc(F)ccc1C(=O)/C=C/c1ccccc1 [Compound 29] | 1.56 µM
CC(C)=CCOc1ccc(CCC(=O)c2ccc(OCC=C(C)C)cc2OCC(=O)O)cc1 [Compound 76] | 12.6 µM
O=C(O)CCCCCOc1ccccc1C(=O)CCc1ccccc1 [Compound 49] | 0.5 µM
CCOC(=O)COc1cc(OC)ccc1C(=O)C=Cc1ccc(OC)cc1 [Compound 48] | > 100 µM
CCOC(=O)CCCOc1ccccc1C(=O)C=Cc1ccc(OCC=C(C)CCC=C(C)C)cc1 [Compound 8] | 2.78 µM
O=C(O)CCCCCCCOc1ccccc1C(=O)C=Cc1ccccc1 [Compound 107] | 2.49 µM
CC(C)=CCOc1ccc(C(=O)/C=C/c2cccc(F)c2)c(OCCCC(=O)O)c1 [Compound 14] | 5.18 µM
O=C(O)COc1cc(F)ccc1C(=O)C=Cc1ccc(F)cc1 [Compound 33] | 2.15 µM
CC(C)=CCOc1ccc(C(=O)/C=C/c2ccc(F)cc2)c(OCCCC(=O)O)c1 [Compound 15] | 0.05 µM
COC(=O)CCCOc1ccccc1C(=O)C=Cc1ccccc1 [Compound 112] | 13.4 µM
CCOC(=O)CCCCOc1ccccc1C(=O)C=Cc1ccccc1 [Compound 110] | 2.9 µM
O=C(O)CCCOc1ccccc1C(=O)C=Cc1ccccc1 [Compound 34] | 9.5 µM
CCOC(=O)COc1cc(O)ccc1C(=O)C=Cc1ccc([N+](=O)[O-])cc1 [Compound 45] | > 20 µM
CCCCOc1ccc(C=CC(=O)c2ccc(OCCCC)cc2OCC(=O)O)cc1 [Compound 94] | 40.7 µM
O=C(O)COc1cc(OCc2ccc(F)cc2)ccc1C(=O)C=Cc1ccc(OCc2ccc(F)cc2)cc1 [Compound 89] | 3.59 µM
COC(=O)COc1cc(OC(C)=O)ccc1C(=O)C=Cc1ccc(OC(C)=O)cc1 [Compound 81] | 28 µM
CCCCCCCCCCOc1ccc(C=CC(=O)c2ccc(OCCCCCCCCCC)cc2OCC(=O)OC)cc1 [Compound 93] | > 50 µM
COC(=O)COc1cc(OCc2ccccc2)ccc1C(=O)C=Cc1ccc(OCc2ccccc2)cc1 [Compound 85] | > 100 µM

Compound | IC50
O=C(O)CCCCCOc1cc(F)ccc1C(=O)/C=C/c1ccc(F)cc1 [Compound 12] | 0.5 µM
CC(C)=CCOc1ccc(C(=O)/C=C/c2ccc(F)cc2)c(OCC(=O)O)c1 [Compound 23] | 22.2 µM
CC(C)=CCOc1ccc(C(=O)C=Cc2cccs2)c(OCCCCCC(=O)O)c1 [Compound 55] | 5.37 µM
CCOC(=O)COc1cc(O)ccc1C(=O)C=Cc1ccc(O)c(O)c1 [Compound 41] | 34.9 µM
COC(=O)COc1cc(O)ccc1C(=O)CCc1ccc(O)cc1 [Compound 72] | 47.6 µM
O=C(O)CCCCCOc1ccccc1C(=O)CCc1cccc(F)c1 [Compound 50] | 0.57 µM
O=C(O)CCCCCOc1ccccc1C(=O)C=Cc1nccs1 [Compound 80] | 51.5 µM
O=C(O)CCCCCOc1ccccc1C(=O)/C=C/c1cccc(F)c1 [Compound 2] | 0.05 µM
COC(=O)COc1cc(OCC(=O)c2ccccc2)ccc1C(=O)C=Cc1ccc(OCC(=O)c2ccccc2)cc1 [Compound 82] | > 100 µM
CCOC(=O)CCCCCCCOc1ccccc1C(=O)C=Cc1ccccc1 [Compound 106] | 2.84 µM
O=C(O)CCCCCOc1cc(F)ccc1C(=O)/C=C/c1ccc(F)cc1 [Compound 16] | 0.37 µM
COC(=O)CCCCCOc1ccccc1C(=O)C=Cc1ccccc1 [Compound 113] | 0.57 µM
O=C(O)CCCCCCOc1ccccc1C(=O)C=Cc1ccccc1 [Compound 105] | 2.92 µM
O=C(O)COc1cc(OCc2ccccc2)ccc1C(=O)C=Cc1ccc(OCc2ccccc2)cc1 [Compound 88] | 9.09 µM
O=C(O)COc1ccccc1C(=O)C=Cc1ccccc1 [Compound 35] | 6.58 µM
CCOC(=O)CCCOc1ccccc1C(=O)C=Cc1ccccc1 [Compound 109] | 9.56 µM
O=C(O)COc1cc(F)ccc1C(=O)C=Cc1ccccc1 [Compound 31] | 4.4 µM
CC(C)=CCCC(C)=CCOc1ccc(C=CC(=O)c2ccc(OCC=C(C)CCC=C(C)C)cc2OCCCC(=O)O)cc1 [Compound 6] | 3.66 µM
CC(C)=CCCC(C)=CCOc1ccc(C(=O)C=Cc2ccc(OCC=C(C)C)cc2)c(OCCCC(=O)O)c1 [Compound 5] | 4.45 µM
CC(C)=CCCC(C)=CCOc1ccc(C=CC(=O)c2ccc(F)cc2OCCCC(=O)O)cc1 [Compound 10] | 5.24 µM

Tested on: human platelet suspension (platelet aggregation caused by collagen)
Assay: Platelet aggregation reaction test, collagen-induced
Format: cell-based
Conditions: read-out: Collagen IC 50
Experimental: as §1, §2

Compound | IC50
CC(C)=CCOc1ccc(/C=C/C(=O)c2ccccc2OCC(=O)O)cc1 [Compound 27] | 18.8 µM
CC(C)=CCCC(C)=CCOc1ccc(C=CC(=O)c2ccc(OCC=C(C)CCC=C(C)C)cc2OCCCC(=O)O)cc1 [Compound 4] | 0.06 µM
CCOC(=O)COc1cc(O)ccc1C(=O)C=Cc1ccc(F)cc1 [Compound 43] | 2.26 µM
O=C(O)COc1cc(F)ccc1C(=O)/C=C/c1ccccc1 [Compound 29] | 7.88 µM
CC(C)=CCOc1ccc(CCC(=O)c2ccc(OCC=C(C)C)cc2OCC(=O)O)cc1 [Compound 76] | 31 µM
O=C(O)CCCCCOc1ccccc1C(=O)CCc1ccccc1 [Compound 49] | 4.85 µM
CCOC(=O)COc1cc(OC)ccc1C(=O)C=Cc1ccc(OC)cc1 [Compound 48] | > 100 µM
CCOC(=O)CCCOc1ccccc1C(=O)C=Cc1ccc(OCC=C(C)CCC=C(C)C)cc1 [Compound 8] | 4.24 µM
O=C(O)CCCCCCCOc1ccccc1C(=O)C=Cc1ccccc1 [Compound 107] | 8.35 µM
CC(C)=CCOc1ccc(C(=O)/C=C/c2cccc(F)c2)c(OCCCC(=O)O)c1 [Compound 14] | 7.05 µM
O=C(O)COc1cc(F)ccc1C(=O)C=Cc1ccc(F)cc1 [Compound 33] | 12.2 µM
CC(C)=CCOc1ccc(C(=O)/C=C/c2ccc(F)cc2)c(OCCCC(=O)O)c1 [Compound 15] | 0.35 µM
COC(=O)CCCOc1ccccc1C(=O)C=Cc1ccccc1 [Compound 112] | 2.69 µM
CCOC(=O)CCCCOc1ccccc1C(=O)C=Cc1ccccc1 [Compound 110] | 4.48 µM
O=C(O)CCCOc1ccccc1C(=O)C=Cc1ccccc1 [Compound 34] | 6.4 µM
CCOC(=O)COc1cc(O)ccc1C(=O)C=Cc1ccc([N+](=O)[O-])cc1 [Compound 45] | > 20 µM
CCCCOc1ccc(C=CC(=O)c2ccc(OCCCC)cc2OCC(=O)O)cc1 [Compound 94] | 63.2 µM
O=C(O)COc1cc(OCc2ccc(F)cc2)ccc1C(=O)C=Cc1ccc(OCc2ccc(F)cc2)cc1 [Compound 89] | 33.9 µM
COC(=O)COc1cc(OC(C)=O)ccc1C(=O)C=Cc1ccc(OC(C)=O)cc1 [Compound 81] | 23.8 µM
CCCCCCCCCCOc1ccc(C=CC(=O)c2ccc(OCCCCCCCCCC)cc2OCC(=O)OC)cc1 [Compound 93] | > 50 µM
COC(=O)COc1cc(OCc2ccccc2)ccc1C(=O)C=Cc1ccc(OCc2ccccc2)cc1 [Compound 85] | > 100 µM

Compound | IC50
O=C(O)CCCCCOc1cc(F)ccc1C(=O)/C=C/c1ccc(F)cc1 [Compound 12] | 0.43 µM
CC(C)=CCOc1ccc(C(=O)/C=C/c2ccc(F)cc2)c(OCC(=O)O)c1 [Compound 23] | 33.5 µM
CC(C)=CCOc1ccc(C(=O)C=Cc2cccs2)c(OCCCCCC(=O)O)c1 [Compound 55] | 4.4 µM
CCOC(=O)COc1cc(O)ccc1C(=O)C=Cc1ccc(O)c(O)c1 [Compound 41] | 15.2 µM
COC(=O)COc1cc(O)ccc1C(=O)CCc1ccc(O)cc1 [Compound 72] | 11.6 µM
O=C(O)CCCCCOc1ccccc1C(=O)CCc1cccc(F)c1 [Compound 50] | 0.33 µM
O=C(O)CCCCCOc1ccccc1C(=O)C=Cc1nccs1 [Compound 80] | 62.7 µM
O=C(O)CCCCCOc1ccccc1C(=O)/C=C/c1cccc(F)c1 [Compound 2] | 0.05 µM
COC(=O)COc1cc(OCC(=O)c2ccccc2)ccc1C(=O)C=Cc1ccc(OCC(=O)c2ccccc2)cc1 [Compound 82] | ≥ 100 µM
CCOC(=O)CCCCCCCOc1ccccc1C(=O)C=Cc1ccccc1 [Compound 106] | 13.1 µM
O=C(O)CCCCCOc1cc(F)ccc1C(=O)/C=C/c1ccc(F)cc1 [Compound 16] | 0.62 µM
COC(=O)CCCCCOc1ccccc1C(=O)C=Cc1ccccc1 [Compound 113] | 0.35 µM
O=C(O)CCCCCCOc1ccccc1C(=O)C=Cc1ccccc1 [Compound 105] | 9.08 µM
O=C(O)COc1cc(OCc2ccccc2)ccc1C(=O)C=Cc1ccc(OCc2ccccc2)cc1 [Compound 88] | 45.1 µM
O=C(O)COc1ccccc1C(=O)C=Cc1ccccc1 [Compound 35] | 7.91 µM
CCOC(=O)CCCOc1ccccc1C(=O)C=Cc1ccccc1 [Compound 109] | 4.89 µM
O=C(O)COc1cc(F)ccc1C(=O)C=Cc1ccccc1 [Compound 31] | 7.1 µM
CC(C)=CCCC(C)=CCOc1ccc(C=CC(=O)c2ccc(OCC=C(C)CCC=C(C)C)cc2OCCCC(=O)O)cc1 [Compound 6] | 44.4 µM
CC(C)=CCCC(C)=CCOc1ccc(C(=O)C=Cc2ccc(OCC=C(C)C)cc2)c(OCCCC(=O)O)c1 [Compound 5] | 6.28 µM
CC(C)=CCCC(C)=CCOc1ccc(C=CC(=O)c2ccc(F)cc2OCCCC(=O)O)cc1 [Compound 10] | 52.5 µM
